Values after ≈ are worked out from the molar mass of the structure shown. Read-outs that look alike come from different tables or passages of the source.
Test system: E. coli ATCC 25922
Test: Broth microdilution MIC
Format: cell-based, Escherichia coli
Conditions: for MIC: Escherichia coli
Description: The process for preparing susceptibility test medium are the following steps: • a. Preparing Mueller Hinton Broth II medium by adding 22 grams powdered media to 1.0 liter distilled water; • b. Autoclaving (121° C., 15 psi, 15 minutes) and cooling the medium; • c. Adding Oxyrase® up to about 10% final volume and keeping at 35-37° C. in an incubator for 30 minutes; • d. Adding about 50 μL to each well of a 96 well microtiter plate; • e. Weighing drug and adding broth to drug to bring up to about (standard 128 μg/ml); • f. Adding 50 μL of the drug to the first column of the titer plate; • g. Diluting by two-fold serial diluting across or down the plate. • h. Preparing a Prompt™ inoculum at 10^8 CFU/ml; • i. Diluting inoculum 1:100 in the broth at […] in 9.9 ml (1:100) is 10^6 colony forming units (CFU) forming the adjusted inoculum; • j. Adding 50 μL of the adjusted inoculum to the wells of the microtiter plate; • k. Incubating the plates at 35-37° C. for 18-22 hours; and • l. Reading, with the unaided eye, the MIC.
The in vitro activities of tigecycline and control antibiotics were determined by the broth microdilution method as recommended by the NCCLS. (National Committee for Clinical Laboratory Standards, 2003. Methods for Dilution Antimicrobial Susceptibility Tests for Bacteria That Grow Aerobically; Approved Standards: M7-A6, Sixth ed, vol. 23., National Committee for Clinical Laboratory Standards Wayne, Pa.) was used for the standard procedures. MBH with 5% lysed horse blood was used for testing S. pneumoniae and Haemophilus Test Medium was used for testing H. influenzae. Oxyrase® (Oxyrase Inc, Mansfield, Ohio) was used according to the manufacturer's instructions by adding 1 ml of Oxyrase® to 50 ml of media. Media age studies were performed by preparing MHB in multiple flasks, then storing the media under various conditions. MICs were usually performed in duplicate on each day of testing. Storage under anaerobic conditions was conducted in an anaerobic chamber (MACS MG 1000, Don Whitley Scientific LTD). The pH of the media was determined by pH meter (Corning 430). A comparison of the in vitro activity of tigecycline by agar and broth dilution methodolgies with and without Oxyrase® against clinical isolates is shown in Table 1.

[1] = Table 8, E. coli ATCC 25922, Mueller Hinton Broth + Oxyrase, n = 240
[2] = Table 8, E. coli ATCC 25922, Mueller Hinton Broth, n = 320
[3] = Table 9, E. coli ATCC 25922, Mueller Hinton Broth + Oxyrase, n = 33
[4] = Table 9, E. coli ATCC 25922, Mueller Hinton Broth, n = 90

With `CN(C)c1cc(NC(=O)CNC(C)(C)C)c(O)c2c1C[C@H]1C[C@H]3[C@H](N(C)C)C(O)=C(C(N)=O)C(=O)[C@@]3(O)C(O)=C1C2=O` [Tigecycline, tigecycline] the MIC (ATCC25922, read-out: Minimal Inhibitory Concentration (modal value), E. coli ATCC 25922, Freshly Prepared Media, N = 8) was 0.12 µg/mL (≈ 0.205 µM), the MIC (ATCC25922, read-out: Minimal Inhibitory Concentration, E. coli ATCC 25922, 2% Oxyrase) was 0.03 µg/mL (≈ 0.0512 µM) and the MIC (ATCC25922, read-out: Minimal Inhibitory Concentration, E. coli ATCC 25922, Aged Media + Oxyrase, N = 8) was 0.12 to 0.25 µg/mL. For the same compound, the MIC (ATCC25922, read-out: Minimal Inhibitory Concentration, E. coli ATCC 25922, Aged media, N = 8) was 0.25 to 0.5 µg/mL (≈ 0.427 to 0.854 µM), the MIC (ATCC25922, read-out: Minimal Inhibitory Concentration, E. coli ATCC 25922, Commercially Prepared media, N = 4) was 0.12 to 0.25 µg/mL (≈ 0.205 to 0.427 µM) and the MIC (ATCC25922, read-out: Minimal Inhibitory Concentration, E. coli ATCC 25922, Fresh Media + Oxyrase, N = 8) was 0.06 to 0.12 µg/mL. The MIC (ATCC25922, read-out: Minimal Inhibitory Concentration, E. coli ATCC 25922, Freshly Prepared Media, N = 8) was 0.12 to 0.25 µg/mL (≈ 0.205 to 0.427 µM), the MIC (ATCC25922, read-out: Minimal Inhibitory Concentration, E. coli ATCC 25922, Freshly Prepared media, N = 4) was 0.03 µg/mL (≈ 0.0512 µM) and the MIC (ATCC25922, read-out: Minimal Inhibitory Concentration, E. coli ATCC 25922, MHB II + 0.05% Catalase) was 0.5 µg/mL. It also gave an MIC (ATCC25922, read-out: Minimal Inhibitory Concentration, E. coli ATCC 25922, MHB II + 0.05% L-ascorbic Acid) of 2 µg/mL, an MIC (ATCC25922, read-out: Minimal Inhibitory Concentration, E. coli ATCC 25922, MHB II + 0.05% L-cysteine) of 0.5 µg/mL and an MIC (ATCC25922, read-out: Minimal Inhibitory Concentration, E. coli ATCC 25922, MHB II + 0.05% Sodium Pyruvate) of 0.12 µg/mL. The MIC (ATCC25922, read-out: Minimal Inhibitory Concentration, E. coli ATCC 25922, MHB II + 0.05% Thioglycolate) was 0.12 µg/mL, the MIC (ATCC25922, read-out: Minimal Inhibitory Concentration, E. coli ATCC 25922, MHB II + 2% Oxyrase) was 0.06 µg/mL and the MIC (ATCC25922, read-out: Minimal Inhibitory Concentration, E. coli ATCC 25922, Mueller Hinton Broth II (Fresh)) was 0.06 to 0.25 µg/mL (≈ 0.102 to 0.427 µM). For the same compound, the MIC (ATCC25922, read-out: Minimal Inhibitory Concentration, E. coli ATCC 25922, Mueller Hinton Broth II (MHB II)) was 0.12 to 0.25 µg/mL (≈ 0.205 to 0.427 µM), the MIC (ATCC25922, read-out: Minimal Inhibitory Concentration, E. coli ATCC 25922, No Oxyrase) was 0.12 µg/mL (≈ 0.205 µM) and the MIC (ATCC25922, read-out: Minimal Inhibitory Concentration, E. coli ATCC 25922, media Aged Anaerobic, N = 4) was 0.03 to 0.06 µg/mL (≈ 0.0512 to 0.102 µM). The “Number of Occurrences of MIC 0.06 ug/ml” value [1] was 130, the “Number of Occurrences of MIC 0.12 ug/ml” value [1] was 103 and the “Number of Occurrences of MIC 0.25 ug/ml” value [1] was 5. For the same compound, the “Number of Occurrences of MIC 1 ug/ml” value [1] was 2, the “Number of Occurrences of MIC 0.12 ug/ml” value [2] was 24 and the “Number of Occurrences of MIC 0.25 ug/ml” value [2] was 210. For the same compound, the “Number of Occurrences of MIC 0.5 ug/ml” value [2] was 23, the “Number of Occurrences of MIC 1 ug/ml” value [2] was 58 and the “Number of Occurrences of MIC 2 ug/ml” value [2] was 4. The “Number of Occurrences of MIC 4 ug/ml” value [2] was 1, the “Number of Occurrences of MIC 0.03 ug/ml” value [3] was 3 and the “Number of Occurrences of MIC 0.06 ug/ml” value [3] was 13. The “Number of Occurrences of MIC 0.12 ug/ml” value [3] was 14, the “Number of Occurrences of MIC 0.25 ug/ml” value [3] was 3 and the “Number of Occurrences of MIC 0.06 ug/ml” value [4] was 1. The “Number of Occurrences of MIC 0.12 ug/ml” value [4] was 15, the “Number of Occurrences of MIC 0.25 ug/ml” value [4] was 47 and the “Number of Occurrences of MIC 0.5 ug/ml” value [4] was 27.

From patent US20050130252A1, “Stabilized susceptibility tests of aerobic pathogens” (Wyeth Holdings Corporation, priority 2003, published 2005)
